Assay results: patent US11376229B2, “Method of treating or preventing neurodegeneration” (Reprise Pharmaceuticals, Inc., priority 2011, dated 2022)

Tests used:
[1] = tested on: Trpm4−/− EAE mice; test: EAE clinical disability scores in Trpm4-/- mice treated with glibenclamide; assay type: in vivo; conditions: 10 μg daily i.p. from day 8, vs DMSO control
[2] = biological target: TRPM4 (Homo sapiens, UniProt Q8TD43); conditions: reported by Damien et al. 2007; Becerra et al. 2011; cited from earlier work
TRPM4, sequence (Q8TD43 whole entry, species assumed): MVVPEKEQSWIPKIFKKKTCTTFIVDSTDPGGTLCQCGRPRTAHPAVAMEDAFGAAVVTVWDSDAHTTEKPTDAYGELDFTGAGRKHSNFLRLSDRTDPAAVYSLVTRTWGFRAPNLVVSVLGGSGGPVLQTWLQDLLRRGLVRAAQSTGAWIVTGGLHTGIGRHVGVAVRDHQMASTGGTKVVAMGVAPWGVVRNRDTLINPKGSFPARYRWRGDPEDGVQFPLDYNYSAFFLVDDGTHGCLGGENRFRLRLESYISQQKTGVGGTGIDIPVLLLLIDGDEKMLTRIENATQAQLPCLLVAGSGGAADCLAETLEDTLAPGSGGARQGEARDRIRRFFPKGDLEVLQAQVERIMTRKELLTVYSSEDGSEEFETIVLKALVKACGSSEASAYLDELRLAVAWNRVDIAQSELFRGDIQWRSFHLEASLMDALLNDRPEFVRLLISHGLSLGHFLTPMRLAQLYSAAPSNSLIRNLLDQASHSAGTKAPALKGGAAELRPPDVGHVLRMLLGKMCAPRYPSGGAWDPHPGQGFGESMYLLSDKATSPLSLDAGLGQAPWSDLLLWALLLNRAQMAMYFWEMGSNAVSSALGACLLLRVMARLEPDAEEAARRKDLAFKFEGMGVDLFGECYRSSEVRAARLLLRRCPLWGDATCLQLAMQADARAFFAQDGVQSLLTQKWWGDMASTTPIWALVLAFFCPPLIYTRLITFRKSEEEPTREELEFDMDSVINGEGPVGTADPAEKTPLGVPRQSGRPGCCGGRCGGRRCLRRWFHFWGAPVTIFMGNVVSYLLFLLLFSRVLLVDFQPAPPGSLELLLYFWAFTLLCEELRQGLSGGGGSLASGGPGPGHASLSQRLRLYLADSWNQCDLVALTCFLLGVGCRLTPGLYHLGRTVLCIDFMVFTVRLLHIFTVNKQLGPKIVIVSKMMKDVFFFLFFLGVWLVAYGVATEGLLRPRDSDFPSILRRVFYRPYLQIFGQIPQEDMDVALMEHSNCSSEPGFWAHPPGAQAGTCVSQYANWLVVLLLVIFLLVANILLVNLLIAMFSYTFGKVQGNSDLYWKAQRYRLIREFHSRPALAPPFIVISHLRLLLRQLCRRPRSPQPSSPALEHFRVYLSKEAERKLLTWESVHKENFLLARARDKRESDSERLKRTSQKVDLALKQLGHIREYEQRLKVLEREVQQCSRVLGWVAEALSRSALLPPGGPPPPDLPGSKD

[3] = tested on: WT EAE mice; test: EAE clinical disability scores, MOG35-55-immunized mice treated with glibenclamide; assay type: in vivo; conditions: 10 μg daily i.p. from first clinical symptoms (day 8), vs vehicle (DMSO) control, P<0.05
[4] = tested on: WT EAE mice; test: Immunohistochemical count of axons (SMI 31/SMI 32) and neuronal somata (NeuN) in cervical spinal cord of EAE mice; assay type: in vivo; conditions: 30 days post immunization, vs vehicle control

SMILES: COc1ccc(Cl)cc1C(=O)NCCc1ccc(S(=O)(=O)NC(=O)NC2CCCCC2)cc1 [glibenclamide]
- clinical disability (mean clinical disability score) [1]: no additional clinical improvement
- TRPM4 inhibition [2]: effectively inhibit TRPM4
- clinical disability (mean clinical disability score) [3]: ameliorated disability
- number of axons in the corticospinal tract ([4]; P<0.01): preservation of axons
- number of axons in the dorsal column ([4]; P<0.05): preservation of axons
- neuronal cell body loss in the gray matter of the spinal cord ([4]; did not reach statistical significance): slightly diminished
